Drawing on patent publication US20250092016A1, “COMPOUNDS AND COMPOSITIONS FOR THE TREATMENT OF CORONAVIRAL RELATED DISEASES” (priority 2021, published 2025), this text covers IC50 for 50 compounds.

The assay addresses SARS-CoV-2 main protease (M^pro) (Severe acute respiratory syndrome coronavirus 2, UniProt P0DTD1). Nature of the assay: Rapid-Fire MS Biochemical Assay measuring Mpro activity (5 nM Mpro). The following applies: Table 1B, Mpro inhibition, 5 μM substrate peptide, 120 min, read-out: Rapid-Fire Assay IC50.

The structures appear in SMILES notation.

The IC50 is the point on the concentration scale where inhibition reaches its midpoint. For the compound `N#Cc1ccc(Cl)cc1N1CC(C#N)N(c2cncc3ccccc23)C1=O` (racemic) [Compound 20, 1-(5-chloro-2-cyanophenyl)-3-(isoquinolin-4-yl)-2-oxoimidazolidine-4-carbonitrile], the IC50 is < 0.02 µM. The result for `Cc1c[nH]c(N2CC(C#N)N(c3cncc4ccccc34)C2=O)n1` (racemic) [Compound 118, 3-(isoquinolin-4-yl)-1-(4-methyl-1 H-imidazol-2-yl)-2-oxoimidazolidine-4-carbonitrile] reads 0.2 to 1 µM; that for `N#C[C@H]1CN(c2ncc(C(F)(F)F)[nH]2)C(=O)N1c1cncc2ccccc12` (single isomer, unassigned) [Compound 68a], 0.02 to 0.2 µM; that for `COc1cc(Cl)ccc1N1CC(C#N)N(c2cncc3ccccc23)C1=O` (racemic) [Compound 103, 1-(4-chloro-2-methoxyphenyl)-3-(isoquinolin-4-yl)-2-oxoimidazolidine-4-carbonitrile], 0.02 to 0.2 µM. As for `N#C[C@H]1CN(C2CN(CC(F)(F)F)C2)C(=O)N1c1cncc2ccccc12` (single isomer, unassigned) [Compound 133a], the figure is < 0.02 µM.

Consider `Cc1cc(N2C[C@H](C#N)N(c3cncc4ccccc34)C2=O)cnc1C` (single isomer, unassigned) [Compound 98a], for which the IC50 was < 0.02 µM. For `Cc1ccc(C#N)c(N2C[C@H](C#N)N(c3cncc4ccccc34)C2=O)c1` (single isomer, unassigned) [Compound 116a], the IC50 is < 0.02 µM. Regarding `N#C[C@@H]1CN(c2cccc(C(F)F)c2)C(=O)N1c1cncc2ccccc12` (single isomer, unassigned) [Compound 22b], the IC50 was > 1 µM. The result for `COc1cc(C(F)(F)F)ccc1N1CC(C#N)N(c2cncc3ccccc23)C1=O` (racemic) [Compound 12, 3-(isoquinolin-4-yl)-1-(2-methoxy-4-(trifluoromethyl)phenyl)-2-oxoimidazolidine-4-carbonitrile] reads 0.02 to 0.2 µM; that for `COc1cc(C(F)(F)F)ncc1N1C[C@H](C#N)N(c2cncc3ccccc23)C1=O` (single isomer, unassigned) [Compound 107a], 0.02 to 0.2 µM; that for `N#C[C@H]1CN(c2cccc3cn[nH]c23)C(=O)N1c1cncc2ccccc12` (single isomer, unassigned) [Compound 63a], < 0.02 µM. As for `N#Cc1ccc(Cl)cc1N1C[C@H](C#N)N(c2cncc3ccccc23)C1=O` (single isomer, unassigned) [Compound 20a], the figure is < 0.02 µM. As for `Cc1ccc(C#N)c(N2C[C@@H](C#N)N(c3cncc4ccccc34)C2=O)c1` (single isomer, unassigned) [Compound 116b], the IC50 was in the range of 0.2 to 1 µM. As for `CS(=O)(=O)c1ccc2cncc(N3C(=O)N(c4cc(F)cc(F)c4)C[C@@H]3C#N)c2c1` (single isomer, unassigned) [Compound 86a], the figure is 0.02 to 0.2 µM; as for `N#Cc1cc(C(F)(F)F)ncc1N1C[C@@H](C#N)N(c2cncc3ccccc23)C1=O` (single isomer, unassigned) [Compound 18b], > 1 µM; as for `N#C[C@@H]1CN([C@@H]2CCN(CCO)C2)C(=O)N1c1cncc2ccccc12` (single isomer, unassigned) [Compound 46b], > 1 µM. As for `COc1cc(C(F)(F)F)ncc1N1C[C@@H](C#N)N(c2cncc3ccccc23)C1=O` (single isomer, unassigned) [Compound 107b], the figure is > 1 µM; as for `N#C[C@H]1CN(c2cc(Cl)cnn2)C(=O)N1c1cncc2ccccc12` (single isomer, unassigned) [Compound 54a], 0.02 to 0.2 µM; as for `COc1cc(Cl)cnc1N1C[C@@H](C#N)N(c2cncc3ccccc23)C1=O` (single isomer, unassigned) [Compound 58b], > 1 µM. With `COc1ccc(Cl)cc1N1C[C@@H](C#N)N(c2cncc3ccccc23)C1=O` (single isomer, unassigned) [Compound 115b], the IC50 was > 1 µM. As for `Cc1ccc(C(F)(F)F)nc1N1C[C@@H](C#N)N(c2cncc3ccccc23)C1=O` (single isomer, unassigned) [Compound 82b], the figure is > 1 µM; as for `CN1CC(N2CC(C#N)N(c3cncc4ccccc34)C2=O)C1` (centres unmarked) [Compound 132, 3-(isoquinolin-4-yl)-1-(1-methylazetidin-3-yl)-2-oxoimidazolidine-4-carbonitrile], > 1 µM; as for `N#C[C@@H]1CN(C23CC(C(F)(F)F)(C2)C3)C(=O)N1c1cncc2ccccc12` (single isomer, unassigned) [Compound 137b], > 1 µM. The result for `Cc1ccc(C(F)(F)F)cc1N1C[C@H](C#N)N(c2cncc3ccccc23)C1=O` (single isomer, unassigned) [Compound 24a] reads < 0.02 µM; that for `Cc1cc(Cl)cnc1N1CC(C#N)N(c2cncc3ccccc23)C1=O` (racemic) [Compound 80, 1-(5-chloro-3-methylpyridin-2-yl)-3-(isoquinolin-4-yl)-2-oxoimidazolidine-4-carbonitrile], 0.02 to 0.2 µM. The result for `Cc1ncc(N2C[C@@H](C#N)N(c3cncc4ccccc34)C2=O)cn1` (single isomer, unassigned) [Compound 79b] reads > 1 µM.

As for `N#CC1CN(C2CC3(C2)CC(F)(F)C3)C(=O)N1c1cncc2ccccc12` (racemic) [Compound 127, 1-(6,6-difluorospiro[3.3]heptan-2-yl)-3-(isoquinolin-4-yl)-2-oxoimidazolidine-4-carbonitrile], the IC50 was < 0.02 µM. On to `N#C[C@@H]1CN(c2ncc(Cl)cn2)C(=O)N1c1cncc2ccccc12` (single isomer, unassigned) [Compound 16b], for which the IC50 lay within 0.2 to 1 µM. As to `Cc1ccc(F)cc1N1C[C@H](C#N)N(c2cncc3ccccc23)C1=O` (single isomer, unassigned) [Compound 21a], the half-maximal inhibitory concentration (IC50) was < 0.02 µM. As for `N#C[C@H]1CN(C2CN(C3CC3)C2)C(=O)N1c1cncc2ccccc12` (single isomer, unassigned) [Compound 136a], the IC50 was < 0.02 µM. The result for `Cc1c[nH]c(N2C[C@@H](C#N)N(c3cncc4ccccc34)C2=O)n1` (single isomer, unassigned) [Compound 118b] reads > 1 µM; that for `N#CC1CN(C2CCC(F)CC2)C(=O)N1c1cncc2ccccc12` (single isomer, unassigned) [Compound 121a], < 0.02 µM; that for `COc1ccc(C(F)(F)F)cc1N1C[C@H](C#N)N(c2cncc3ccccc23)C1=O` (single isomer, unassigned) [Compound 17a], < 0.02 µM. The result for `CS(=O)(=O)c1ccc2cncc(N3C(=O)N(c4cc(F)cc(F)c4)C[C@H]3C#N)c2c1` (single isomer, unassigned) [Compound 86b] reads > 1 µM; that for `CC(C)n1cc(N2CC(C#N)N(c3cncc4ccccc34)C2=O)cn1` (racemic) [Compound 64, 1-(1-isopropyl-1H-pyrazol-4-yl)-3-(isoquinolin-4-yl)-2-oxoimidazolidine-4-carbonitrile], 0.02 to 0.2 µM; that for `N#C[C@@H]1CN(c2ccc(C(F)F)cn2)C(=O)N1c1cncc2ccccc12` (single isomer, unassigned) [Compound 78b], > 1 µM. With `COc1cc(N2C[C@@H](C#N)N(c3cncc4ccccc34)C2=O)ccn1` (single isomer, unassigned) [Compound 23b], the IC50 was > 1 µM. As to `N#C[C@@H]1CN(c2cnc(C(F)(F)F)c(F)c2)C(=O)N1c1cncc2ccccc12` (single isomer, unassigned) [Compound 77b], the IC50 is 0.02 to 0.2 µM. As for `N#C[C@H]1CN([C@H]2C[C@@H](C(F)(F)F)C2)C(=O)N1c1cncc2ccccc12` [Compound 45b, (R)-3-(isoquinolin-4-yl)-2-oxo-1-((1s,3S)-3-(trifluoromethyl)cyclobutyl)imidazolidine-4-carbonitrile], the figure is 0.2 to 1 µM; as for `COc1cc(C#N)ccc1N1C[C@H](C#N)N(c2cncc3ccccc23)C1=O` (single isomer, unassigned) [Compound 19a], < 0.02 µM. The result for `N#CC1CN(c2cccc(Cl)c2)C(=O)N1c1cncc2ccc(C(=O)O)cc12` (racemic) [Compound 33, 4-(3-(3-chlorophenyl)-5-cyano-2-oxoimidazolidin-1-yl)isoquinoline-6-carboxylic acid] reads < 0.02 µM; that for `N#C[C@@H]1CN(c2ccc(C(F)(F)F)cn2)C(=O)N1c1cncc2ccccc12` (single isomer, unassigned) [Compound 97b], > 1 µM.

As for `N#C[C@@H]1CN([C@H]2CC[C@H](C(F)(F)F)CC2)C(=O)N1c1cncc2ccccc12` [Compound 128b, (S)-3-(isoquinolin-4-yl)-2-oxo-1-((1 r,4R)-4-(trifluoromethyl)cyclohexyl)imidazolidine-4-carbonitrile], the IC50 is > 1 µM. The result for `CS(=O)(=O)c1ccc2cncc(N3C(=O)N(c4cccc(Cl)c4)C[C@@H]3C#N)c2c1` (single isomer, unassigned) [Compound 37a] reads < 0.02 µM; that for `N#C[C@@H]1CN(c2ccc(C(F)F)cc2)C(=O)N1c1cncc2ccccc12` (single isomer, unassigned) [Compound 108b], > 1 µM; that for `N#C[C@H]1CN(c2cnc(C(F)(F)F)nc2)C(=O)N1c1cncc2ccccc12` (single isomer, unassigned) [Compound 93a], < 0.02 µM. Take `CC(C)n1cc(N2C[C@@H](C#N)N(c3cncc4ccccc34)C2=O)cn1` (single isomer, unassigned) [Compound 64b]: the IC50 was > 1 µM. With `CC(C)(O)c1ccc(N2C[C@@H](C#N)N(c3cncc4ccccc34)C2=O)cc1` (single isomer, unassigned) [Compound 84b], the IC50 was > 1 µM.

Take `Cn1ccc(N2C[C@H](C#N)N(c3cncc4ccccc34)C2=O)cc1=O` (single isomer, unassigned) [Compound 67a]: the concentration for half-maximal inhibition (IC50) fell in the range of 0.02 to 0.2 µM.

Consider `CC1CC(N2CC(C#N)N(c3cncc4ccccc34)C2=O)C1` (single isomer, unassigned) [Compound 120d], for which the IC50 was > 1 µM.
